Patent US10597390B2, “Indoles for use in influenza virus infection” (Janssen Sciences Ireland UC, priority 2014, dated 2020)

Columns and labels:
[1] = tested on: influenza virus A/Taiwan/1/86 (H1N1); assay: organism not typed; format: cell-based; details: MDCK, 72 h, CPE in MDCK cells, three days post-virus exposure, ATPlite
[2] = in vitro; details: dog, TOX MDCK CC50

| Compound | melting point | IC50 [1] | CC50 at 3 days [2] |
| --- | --- | --- | --- |
| Cc1cc(C(=O)N[C@@H]2CCC[C@H](Nc3nc(-c4c[nH]c5c(F)cc(Cl)cc45)ncc3F)C2)n[nH]1 [Compound 43] | 189.2 °C | 4 nM | 2700 nM |
| Cc1cc(F)c2[nH]cc(-c3ncc(F)c(N[C@@H]4CCC[C@@H](NC(=O)c5nc(C)oc5C)C4)n3)c2c1 (racemic) [Compound 199] | 170 °C | 46 nM | 13000 nM |
| CCn1nccc1C(=O)N[C@@H]1CCC[C@H](Nc2nc(-c3c[nH]c4c(F)cc(Cl)cc34)ncc2F)C1 [Compound 60] | > 300 °C | 2 nM | > 25000 nM |
| Nc1nc(C(=O)N[C@@H]2CCC[C@H](Nc3nc(-c4c[nH]c5c(F)cc(F)cc45)ncc3F)C2)cs1 [Compound 145] | 178.1 °C | 2 nM | 6800 nM |
| Cc1cc(F)c2[nH]cc(-c3ncc(F)c(N[C@@H]4CCC[C@@H](NC(=O)N5CCCC5)C4)n3)c2c1 (racemic) [Compound 20] | 94 °C | 12 nM | 15100 nM |
| Cc1sc(N)nc1C(=O)N[C@@H]1CCC[C@H](Nc2nc(-c3c[nH]c4c(F)cc(F)cc34)ncc2F)C1 [Compound 150] | 248.4 °C | 3 nM | 4800 nM |
| Nc1nccc(C(=O)N[C@@H]2CCC[C@H](Nc3nc(-c4c[nH]c5c(F)cc(Cl)cc45)ncc3F)C2)n1 [Compound 65] | 261.7 °C | 3 nM | > 25000 nM |
| Cn1cnc(C(=O)N[C@@H]2CCC[C@H](Nc3nc(-c4c[nH]c5c(F)cc(Cl)cc45)ncc3F)C2)n1 [Compound 70] | 291.9 °C | 4 nM | 9100 nM |
| CS(=O)(=O)NCc1cc(F)c(N[C@@H]2CCC[C@H](NC(=O)N3CCCC3)C2)nc1-c1c[nH]c2c(F)cc(F)cc12 (racemic) [Compound 250, N-((cis)-3-((6-(5,7-difluoro-1H-indol-3-yl)-3-fluoro-5-(methylsulfonamidomethyl)pyridin-2-yl)amino)cyclohexyl)pyrrolidine-1-carboxamide] | 252.1 °C | 780 nM | > 25000 nM |
| O=C(N[C@@H]1CCC[C@H](Nc2nc(-c3c[nH]c4c(F)cc(Cl)cc34)ncc2F)C1)c1cnccn1 [Compound 33] | 249.9 °C | 7 nM | 13800 nM |
| Nc1n[nH]cc1C(=O)N[C@@H]1CCC[C@H](Nc2nc(-c3c[nH]c4c(F)cc(Cl)cc34)ncc2F)C1 [Compound 77] | 133 °C | 3 nM | 9900 nM |
| N#Cc1cc(F)c2[nH]cc(-c3ncc(F)c(N[C@H]4CCC[C@@H](NC(=O)c5c[nH]nn5)C4)n3)c2c1 [Compound 172] | > 300 °C | 2 nM | > 25000 nM |
| CN1CCC[C@@H]1C(=O)N[C@@H]1CCC[C@H](Nc2nc(-c3c[nH]c4c(F)cc(Cl)cc34)ncc2F)C1 [Compound 62] | 196.5 °C | 730 nM | 6900 nM |
| Cc1cc(F)c2[nH]cc(-c3nc(N[C@H]4CCC[C@@H](NC(=O)c5cn(C)cn5)C4)c(F)cc3C#N)c2c1 (racemic) [Compound 195] | > 250 °C | 20 nM | 6600 nM |
| O=C(N[C@H]1CCC[C@@H](Nc2nc(-c3c[nH]c4c(F)cc(F)cc34)ncc2F)C1)c1cncs1 [Compound 84] | 295.2 °C | 3 nM | > 25000 nM |
| Cn1nc(C(=O)N[C@@H]2CCC[C@H](Nc3nc(-c4c[nH]c5c(F)cc(F)cc45)ncc3F)C2)cc1N [Compound 149] | 253.4 °C | 2 nM | 10000 nM |
| Cc1cc(F)c2[nH]cc(-c3nc(N[C@@H]4CCC[C@@H](NC(=O)c5ccccn5)C4)c(F)cc3C#N)c2c1 (racemic) [Compound 22, N-((cis)-3-((5-cyano-3-fluoro-6-(7-fluoro-5-methyl-1H-indol-3-yl)-pyridin-2-yl)amino)cyclohexyl)picolinamide] | 98 °C | 12 nM | > 25000 nM |
| O=C(N[C@@H]1CCC[C@H](Nc2nc(-c3c[nH]c4c(F)cc(Cl)cc34)ncc2F)C1)c1cc[nH]n1 [Compound 51] | 263.3 °C | 1 nM | 2800 nM |
| Cc1cn(C)nc1C(=O)N[C@@H]1CCC[C@H](Nc2nc(-c3c[nH]c4c(F)cc(Cl)cc34)ncc2F)C1 [Compound 73] | 248.4 °C | 9 nM | > 25000 nM |
| CC(=O)NCc1cc(F)c(N[C@@H]2CCC[C@H](NC(=O)N3CCCC3)C2)nc1-c1c[nH]c2c(F)cc(F)cc12 [Compound 248] | < 260 °C | 50 nM | > 25000 nM |
| CC(C)(c1cccs1)C(CC(=O)O)Nc1nc(-c2c[nH]c3c(F)cc(F)cc23)c(C#N)cc1F (stereo not drawn) [Compound 229, 3-((5-cyano-6-(5,7-difluoro-1H-indol-3-yl)-3-fluoropyridin-2-yl)amino)-4-methyl-4-(thiophen-2-yl)pentanoic Acid] | 235.7 °C | 18 nM | 200 nM |
| Cn1ncnc1C(=O)N[C@@H]1CCC[C@H](Nc2nc(-c3c[nH]c4c(F)cc(Cl)cc34)ncc2F)C1 [Compound 75] | > 300 °C | 12 nM | > 25000 nM |

| Compound | melting point | IC50 [1] | CC50 at 3 days [2] |
| --- | --- | --- | --- |
| Cc1cc(F)c2[nH]cc(-c3ncc(F)c(N[C@@H](CC(=O)O)C(C)(C)c4ccccn4)n3)c2c1 [Compound 239] | 219 °C | 10 nM | 15300 nM |
| Cn1nc(N)cc1C(=O)N[C@@H]1CCC[C@H](Nc2nc(-c3c[nH]c4c(F)cc(Cl)cc34)ncc2F)C1 [Compound 68] | 267.2 °C | 3 nM | 21000 nM |
| Cc1ocnc1C(=O)N[C@@H]1CCC[C@H](Nc2nc(-c3c[nH]c4c(F)cc(Cl)cc34)ncc2F)C1 [Compound 48] | 253.4 °C | 4 nM | 5000 nM |
| Cc1cc(C(=O)N[C@@H]2CCC[C@H](Nc3nc(-c4c[nH]c5c(F)cc(Cl)cc45)ncc3F)C2)nn1C [Compound 36] | 178.2 °C | 10 nM | 5500 nM |
| Nc1cc(C(=O)N[C@@H]2CCC[C@H](Nc3nc(-c4c[nH]c5c(F)cc(F)cc45)ncc3F)C2)ncn1 [Compound 124] | 228 °C | 7 nM | 11400 nM |
| Cc1cccnc1C(=O)N[C@@H]1CCC[C@H](Nc2nc(-c3c[nH]c4c(F)cc(F)cc34)ncc2F)C1 [Compound 101] | 236 °C | 10 nM | > 20700 nM |
| Cc1cnc(C(=O)N[C@@H]2CCC[C@H](Nc3nc(-c4c[nH]c5c(F)cc(F)cc45)ncc3F)C2)cn1 [Compound 103] | 215 °C | 49 nM | 6600 nM |
| O=C(N[C@@H]1CCC[C@H](Nc2nc(-c3c[nH]c4c(F)cc(F)cc34)ncc2F)C1)c1cccc(O)n1 [Compound 104] | 226.6 °C | 2 nM | > 25000 nM |
| Cn1ccc(C(C)(C)C(CC(=O)O)Nc2nc(-c3c[nH]c4c(F)cc(F)cc34)c(C#N)cc2F)n1 (stereo not drawn) [Compound 236] | 246.9 °C | 86 nM | 1500 nM |
| COc1cccc(C(=O)N[C@@H]2CCC[C@H](Nc3nc(-c4c[nH]c5c(F)cc(F)cc45)ncc3F)C2)n1 [Compound 98] | 240 °C | 43 nM | 14700 nM |
| Cn1nnc(C(=O)N[C@@H]2CCC[C@H](Nc3nc(-c4c[nH]c5c(F)cc(F)cc45)ncc3F)C2)n1 [Compound 153] | 230 °C | 20 nM | > 1000 nM |
| CN(C)C(=O)C(C)(C)C(CC(=O)O)Nc1nc(-c2c[nH]c3c(F)cc(F)cc23)ncc1F (stereo not drawn) [Compound 251] | 253 °C | 150 nM | > 25000 nM |
| Cn1cncc1C(=O)N[C@@H]1CCC[C@H](Nc2nc(-c3c[nH]c4c(F)cc(Cl)cc34)ncc2F)C1 [Compound 64] | 291.8 °C | 3 nM | > 25000 nM |
| Cn1ncc(N)c1C(=O)N[C@@H]1CCC[C@H](Nc2nc(-c3c[nH]c4c(F)cc(Cl)cc34)ncc2F)C1 [Compound 79] | 166.4 °C | 38 nM | > 25000 nM |
| Cc1cc(F)c2[nH]cc(-c3ncc(F)c(N[C@@H](CC(=O)O)C(C)(C)C)n3)c2c1 [Compound 169] | 144 °C | 19 nM | 2300 nM |
| C=CCC(C)(C)[C@@H](CC(=O)O)Nc1nc(-c2c[nH]c3c(F)cc(C)cc23)ncc1F [Compound 243] | < 280 °C | 46 nM | 600 nM |
| Cc1cc(F)c2[nH]cc(-c3ncc(F)c(N[C@@H]4CCC[C@@H](NC(=O)c5cncn5C)C4)n3)c2c1 (racemic) [Compound 198] | 98 °C | 40 nM | 9700 nM |
| CCn1ccnc1C(=O)N[C@@H]1CCC[C@H](Nc2nc(-c3c[nH]c4c(F)cc(Cl)cc34)ncc2F)C1 [Compound 72] | 156.4 °C | 3 nM | 2800 nM |
| Cc1cc(F)c2[nH]cc(-c3ncc(F)c(N[C@H]4C5CCC(CC5)[C@@H]4C(=O)O)n3)c2c1 [Compound 166] | 98 °C | 6 nM | 1000 nM |
| O=C(N[C@@H]1CCC[C@H](Nc2nc(-c3c[nH]c4c(F)cc(F)cc34)ncc2F)C1)c1nccs1 [Compound 109] | 277 °C | 2 nM | 6100 nM |
| Cn1ccc(C(=O)N[C@@H]2CCC[C@@H](Nc3nc(-c4c[nH]c5c(F)cc(F)cc45)c(C#N)cc3F)C2)n1 (racemic) [Compound 205] | 103 °C | 4 nM | > 25000 nM |
